Molecules are shown by their SMILES.

Assay [1] can be described thus: Singlet oxygen formation by quenching of ABDA fluorescence. As to conditions: increasing concentrations of compound (0-15 microMolar); no external excitation; sodium azide prevented the quenching. As for the experimental part: The production of reactive triplet states by compound 1 was determined by assessing the formation of singlet oxygen. This latter species is formed by energy transfer from a triplet molecule to oxygen. To this end, 9,10-anthracenediyl-bis(methylene)dimalonic acid (ABDA) was added to a solution containing compound 1, as the fluorescence of ABDA is quenched by the formation of singlet oxygen. […] To confirm that the quenching of ABDA's fluorescence was due to the production of singlet oxygen, sodium azide was added to solutions containing ABDA and compound 1. Sodium azide is a known quencher of singlet oxygen. As expected, the addition of sodium azide prevented the quenching of the fluorescence emitted by ABDA (Figure 12).

In assay [2] the test system is HepG2 human liver cancer cell lines. The experiment in a line: LDH release cytotoxicity assay. The class given is cell-based. As to conditions: HepG2, 24h exposure, read-out: toxicity. As for the experimental part:
(§1) To assess if the produced singlet oxygen can induce cytotoxicity in tumor cells, toxicity assays were performed in vitro with compound 1 in HepG2 human liver cancer cell lines. Cytotoxicity of compound 1 was evaluated through the MTT and LDH assay, which has been widely used as a colorimetric approach based on the activity of mitochondrial dehydrogenase enzyme in cells. MTT test was performed after an incubation of 24h and 48h. LDH release was monitored following an incubation of 24h and 48h with different concentrations of Compound 1 (1, 10, 20, 50 and 100 µM). Percent viability was obtained by comparing with control cell viability, considered as 100%. Data represents the mean ± SD of measurements of three independent experiments. Results of the one-way ANOVA factorial analysis. […] Thus, compound 1 was indeed able to induce cytotoxicity without the need of external excitation sources.

Assay [3] has the same test system. Description: MTT cytotoxicity assay. In kind it is cell-based. The conditions noted are these: HepG2, 24h exposure, versus control cell viability taken as 100%, read-out: toxicity. Here is the method:
as §1
In general terms: Tetrazolium dyes change colour on reduction, which living cells bring about.

`Cc1nc2c(Br)[nH]c(-c3ccc(O)cc3)cn-2c1=O` [Compound 1, 8-bromo-6-(4-hydroxyphenyl)-2-methylimidazo[1,2-a]pyrazin-3(7H)-one]: the “fluorescence intensity of ABDA” value in assay [1] is “decreased significantly”. Further, the cytotoxicity at 50 µM in assay [2] (50 µM) and in assay [3] (50 µM) was 15% each time. Further, the cytotoxicity at 100 µM in assay [2] (100 µM) and in assay [3] (100 µM) was 12% in each case.

The values are drawn from EP3788116B1, “CHEMILUMINESCENT IMIDAZOPYRAZINONE-BASED PHOTOSENSITIZERS WITH AVAILABLE SINGLET AND TRIPLET EXCITED STATES” (Universidade do Porto, priority 2018, dated 2019).
